Results published in patent US10035819B2, “PPAR agonists and methods of use thereof” (The Salk Institute for Biological Studies, priority 2014, dated 2018).
In brackets after ≈: the same amount, converted by molar mass.

What was measured:
[1] = Solubility (kinetic, thermodynamic); format: physicochemical
[2] = format: in vitro ADME
[3] = Pharmacokinetics in male CD-1 mice (i.v. and p.o.); format: in vivo
Protocol: The oral bioavailability and serum half lives of PPARδ ligands were compared in mice. The pharmacokinetics of PPARδ ligands delivered orally (10 mg/kg p.o.) and intravenously (3 mg·kg i.v.) were determined by mass spectrometry.
In this example, the PK profile of several PPARδ agonists disclosed herein in male CD-1 mice or Wistar rats was determined. Similar methods can be used to analyze other compounds provided herein.
(quantity sufficient ie made up to a final volume of 100% with water). All compounds were separately administered to CD-1 mice at 3 mg/kg iv or 10 mg/kg po.
(§1) The concentration of the compound in plasma was determined, as illustrated in FIGS. 9A-9E.

[4] = Pharmacokinetics in male Wistar rats (i.v. and p.o.); format: in vivo
Protocol: In this example, the PK profile of several PPARδ agonists disclosed herein in male CD-1 mice or Wistar rats was determined. Similar methods can be used to analyze other compounds provided herein. […]
as §1

[5] = system: C57BL6J mice, freeze burn injury to the TA muscle; assay: Acute pharmacological activation of PPARδ with oral GW501516, freeze burn injury to the TA muscle; format: in vivo
Protocol: A stainless steel 1 g weight (Mettler-Toledo) equilibrated to the temperature of dry ice was placed directly on the exposed TA for 10 seconds. Following the thermal injury, incision was closed using VetBond (3M). All injury procedures were performed on the left leg, and the right leg was used as control.
Sterile 1% w/v Evans Blue dye in PBS was intraperitoneally injected at 1% volume relative to the body mass of an animal. 7 hours after the injection, injured TA muscles were harvested and snap-frozen by isopentane quenching in liquid nitrogen. Frozen sections were cut in 10 μm thickness, fixed in ice-cold acetone, dipped in xylene and mounted with DPX. Proportion of the stained area over the total area was measured using ImageJ software.
50 mg/kg body weight of BrdU (Sigma) was injected intraperitoneally as solution of 10 mg/mL BrdU in saline. TA muscles were harvested at 7 days after injury and processed for paraffin sections as described above. BrdU incorporation was visualized using the BrdU Labeling and Detection Kit I (Roche) and BrdU+ nuclei were counted and represented as a proportion of total nuclei in a field.
Whole or partial tissues were homogenized by Polytron probe homogenizer in Trizol reagent (Invitrogen). Total RNA was extracted from the homogenates according to the manufacturer's protocol. 1 μg of DNase-treated total RNA was reverse transcribed using Superscript II Reverse Transcriptase (Invitrogen) according to the manufacturer's instructions. cDNAs were diluted 1/40 with ddH2O and used as templates in RT-QPCR reactions with SYBRGreenER qPCR SuperMix detection system (Invitrogen). Samples were prepared in technical triplicates and relative mRNA levels were calculated by using the standard curve methodology and normalized against GAPDH mRNA levels in the same samples.

[6] = system: FGF1a promoter; assay: Luciferase reporter assay of the FGF1a promoter co-transfected with PPARδ; format: cell-based; conditions: with ligand
Source text: Increased vasculature is one of the hallmarks of oxidative myofibers, which facilitates introduction of immune cells and also supports increased number of satellite cells.

[7] = male, mouse, iv, CD-1 mice, 3 mg/Kg i.v., plasma
[8] = male, mouse, po, CD-1 mice, 10 mg/Kg p.o., plasma
[9] = rat, iv, male Wistar rats, 3 mg/Kg i.v., plasma
[10] = rat, po, male Wistar rats, 10 mg/Kg p.o., plasma

With `Cc1cc(SCc2sc(-c3ccc(C(F)(F)F)cc3)nc2C)ccc1OCC(=O)O` [GW501516] the solubility kinetic ([1]; kinetic from dmso stock) was 195 µM (≈ 88.4 µg/mL), the solubility thermodynamic ([1]; thermodynamic from solid) was 246 µM (≈ 112 µg/mL) and the “% Parent remained at 15 min, MLM” value [2] was 93/76%. For the same compound, the “% Parent remained at 60 min, MLM” value [2] was 93/76%, the Kel ([3]; CD-1 mice, 3 mg/Kg i.v., plasma) was 0.11 h⁻¹ and the F ([3]; CD-1 mice, 10 mg/Kg p.o. vs 3 mg/Kg i.v.) was 82.1%. The clearance ([3]; male, CD-1, mouse, plasma, iv, 3 mg/kg) was 4.42 mL/min/kg, the Vd ([3]; male, CD-1, mouse, plasma, iv, 3 mg/kg, CD-1 mice, 3 mg/Kg i.v., plasma, read-out: Vss) was 1.71 L/kg and the Vd ([3]; male, CD-1, mouse, plasma, iv, 3 mg/kg, CD-1 mice, 3 mg/Kg i.v., plasma, read-out: Vz) was 2.46 L/kg. It also gave a half-life ([3]; male, CD-1, mouse, plasma, iv, 3 mg/kg, read-out: Beta T1/2 (converted)) of 6.44 h, a half-life ([3]; male, CD-1, mouse, plasma, po, 10 mg/kg, read-out: T1/2 (converted)) of 5.98 h and an AUC(0-inf) [3, 7] of 11300 ng·h/mL. For the same compound, the C0 [3, 7] was 5560 ng/mL, the MRT [3, 7] was 4.96 h and the AUC(0-inf) [3, 8] was 31000 ng·h/mL. The Cmax [3, 8] was 3290 ng/mL, the Tmax [3, 8] was 2 h and the Kel ([4]; male Wistar rats, 3 mg/Kg i.v., plasma) was 0.09 h⁻¹. The F ([4]; male Wistar rats, 10 mg/Kg p.o. vs 3 mg/Kg i.v.) was roughly 100%, the clearance ([4]; male, Wistar, rat, plasma, iv, 3 mg/kg) was 5.1 mL/min/kg and the Vd ([4]; male, Wistar, rat, plasma, iv, 3 mg/kg, male Wistar rats, 3 mg/Kg i.v., plasma, read-out: Vss) was 1.99 L/kg. For the same compound, the Vd ([4]; male, Wistar, rat, plasma, iv, 3 mg/kg, male Wistar rats, 3 mg/Kg i.v., plasma, read-out: Vz) was 3.58 L/kg, the half-life ([4]; male, Wistar, rat, plasma, iv, 3 mg/kg, read-out: Beta T1/2 (converted)) was 8.07 h and the half-life ([4]; male, Wistar, rat, plasma, po, 10 mg/kg, read-out: T1/2 (converted)) was 6.21 h. The AUC(0-inf) [4, 9] was 9960 ng·h/mL, the C0 [4, 9] was 5280 ng/mL and the MRT [4, 9] was 4.3 h. The AUC(0-inf) [4, 10] was 35100 ng·h/mL, the Cmax [4, 10] was 6920 ng/mL and the Tmax [4, 10] was 2 h. For the same compound, the “Evans Blue dye uptake, stained proportion of muscle cross sectional area (CSA)” value ([5]; 5 mg/kg orally, 4 days prior to and 5 days after freeze burn injury, 5 days after injury (vehicle 7.6%)) was 4.9%, the initial inflammatory responses ([5]; 12 hours after injury, with and without ligand) was “similar” and the “TNFα and macrophage marker F4/80 expression by QPCR” value ([5]; 3 days post injury, TA muscle) was “significant reduction”. For the same compound, the “reduction in damaged muscle fibers” value ([5]; 5 days after the injury, vs vehicle) was 34.7%, the “Notch1 and Hes1 expression by QPCR” value ([5]; 9 day treatment) was “increases” and the “PPARδ target genes (PDK4, CPT1b, catalase) in the TA muscle by QPCR” value ([5]; 9 day treatment, 5 mg/kg orally) was “Up-regulation”. The “number of quiescent satellite cells” value ([5]; 9 days or 4 weeks of ligand treatment) was “not significantly affected”, the “proliferative cell number (BrdU)” value ([5]; BrdU injection at 48 hours after the injury) was “marked increase” and the “FGF1a promoter luciferase reporter, PPRE-dependent” value [6] was “activation”.
